#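 Assay format: 96-well plates, 48-hour exposure. At the TGI there is no net growth.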
# Tests used:
# Experiment in all cases: inhibition of tumour cell growth, NCI panel, 48 h
# [1] = system: HCT-15 colon
# [2] = system: NCI-H460 lung
# [3] = system: SK-MEL-2 melanoma
# [4] = system: HCT-116 colon
# [5] = system: SK-MEL-28 melanoma
# [6] = system: KM12 colon
# [7] = system: MALME-3M melanoma
# [8] = system: BT-549 breast
# [9] = system: HCC-2998 colon
# [10] = system: PC-3 prostate
smiles,measurement,setting,value
O=C(OCc1ccccc1C1CSCSC1)c1cc(C(=O)OCc2ccccc2C2CSCSC2)c(C(=O)OCc2ccccc2C2CSCSC2)cc1C(=O)OCc1ccccc1C1CSCSC1,TGI,[1],> 100 µM
same,TGI,[2],> 100 µM
same,TGI,[3],> 100 µM
same,TGI,[4],> 100 µM
same,TGI,[5],> 100 µM
same,TGI,[6],> 100 µM
same,TGI,[7],> 100 µM
COC(=O)c1ccc(/C=C2\CCc3ccccc3C2=O)cc1,TGI,[1],> 100 µM
same,TGI,[2],> 100 µM
same,TGI,[4],> 100 µM
same,TGI,[5],> 100 µM
same,TGI,[8],> 100 µM
same,TGI,[9],> 100 µM
same,TGI,[6],> 100 µM
same,TGI,[10],> 100 µM
same,TGI,[7],> 100 µM
C=C[C@@](C)(/C=C/c1ccc(O)cc1)CCC=C(C)C,TGI,[1],32.7 µM
same,TGI,[2],29.2 µM
same,TGI,[3],37.3 µM
same,TGI,[4],32.2 µM
same,TGI,[5],35.7 µM
same,TGI,[9],35.5 µM
same,TGI,[10],30.4 µM
CC1=C2C(=O)c3ccccc3C(=O)[C@H]2C[C@@H](N2CCCCCC2=O)O1,TGI,[1],47.5 µM
same,TGI,[2],33.3 µM
same,TGI,[3],40 µM
same,TGI,[5],35.7 µM
same,TGI,[9],31.4 µM
same,TGI,[6],30.7 µM
same,TGI,[10],44.4 µM
same,TGI,[7],25.5 µM
COC1=CC(=O)C2=C(C1=O)[C@H]1CC[C@]3(C)[C@@H](OC(C)=O)CC[C@H]3[C@@H]1CC2,TGI,[1],> 100 µM
same,TGI,[2],> 100 µM
same,TGI,[3],> 100 µM
same,TGI,[4],> 100 µM
same,TGI,[5],> 100 µM
same,TGI,[8],> 100 µM
same,TGI,[6],> 100 µM
same,TGI,[10],> 100 µM
same,TGI,[7],59 µM
COc1ccc(C2=C(OC(=O)N(C)C)c3cccn3-c3cc(Cl)ccc3S2)cc1,TGI,[1],> 10 µM
same,TGI,[5],> 10 µM
same,TGI,[9],> 10 µM
same,TGI,[6],> 10 µM
same,TGI,[10],> 10 µM
same,TGI,[7],> 10 µM
Cc1cc2n([O-])cccc-2[n+](=O)c1,TGI,[1],> 100 µM
same,TGI,[2],> 100 µM
same,TGI,[3],> 100 µM
same,TGI,[4],> 100 µM
same,TGI,[5],> 100 µM
same,TGI,[9],> 100 µM
same,TGI,[6],> 100 µM
same,TGI,[7],> 100 µM
CC12CC(C/C1=N/O)C(C)(C)C2 (centres undefined),TGI,[2],> 100 µM
same,TGI,[4],> 100 µM
same,TGI,[5],> 100 µM
same,TGI,[8],> 100 µM
same,TGI,[9],> 100 µM
same,TGI,[6],> 100 µM
same,TGI,[10],> 100 µM
same,TGI,[7],> 100 µM
CO[P@]1(=O)O[C@@H](c2ccccc2)[C@H](O)[C@@]1(O)c1ccccc1,TGI,[1],> 100 µM
same,TGI,[2],> 100 µM
same,TGI,[3],> 100 µM
same,TGI,[4],> 100 µM
same,TGI,[5],> 100 µM
same,TGI,[8],> 100 µM
same,TGI,[6],> 100 µM
same,TGI,[10],> 100 µM
same,TGI,[7],> 100 µM
NS(=O)(=O)c1cc(S(N)(=O)=O)c(NC(=O)N(c2ccccc2)c2ccccc2)c(Cl)c1Cl,TGI,[1],> 100 µM
same,TGI,[2],> 100 µM
same,TGI,[3],82.7 µM
same,TGI,[4],> 100 µM
same,TGI,[5],> 100 µM
same,TGI,[8],36.1 µM
same,TGI,[9],35.3 µM
same,TGI,[6],57.1 µM
same,TGI,[10],> 100 µM
NC(=S)N/N=C\CC(O)(C(F)(F)F)C(F)(F)F,TGI,[1],> 10 µM
same,TGI,[2],> 10 µM
same,TGI,[3],> 10 µM
same,TGI,[4],> 10 µM
same,TGI,[5],> 10 µM
same,TGI,[9],> 10 µM
same,TGI,[6],> 10 µM
same,TGI,[10],> 10 µM
same,TGI,[7],> 10 µM
CC(C)CCCC(C)[C@H]1CC[C@H]2N=C(Nc3ccccc3)CCC[C@]12C (some centres undefined),TGI,[1],4.68 µM
same,TGI,[2],3.92 µM
same,TGI,[3],3.2 µM
same,TGI,[5],3.89 µM
same,TGI,[8],7.66 µM
same,TGI,[6],> 100 µM
same,TGI,[10],> 100 µM
same,TGI,[7],6.39 µM
c1ccc([P+](c2ccccc2)(c2ccccc2)c2ccc([P+](c3ccccc3)(c3ccccc3)c3ccccc3)cc2)cc1,TGI,[1],> 100 µM
same,TGI,[2],> 100 µM
same,TGI,[3],> 100 µM
same,TGI,[4],> 100 µM
same,TGI,[5],> 100 µM
same,TGI,[8],> 100 µM
same,TGI,[6],> 100 µM
same,TGI,[10],> 100 µM
same,TGI,[7],> 100 µM
O=S1(=O)OCCOS(=O)(=O)C1Cc1nc2ccccc2[nH]1,TGI,[1],> 100 µM
same,TGI,[2],> 100 µM
same,TGI,[3],> 100 µM
same,TGI,[4],57 µM
same,TGI,[5],> 100 µM
same,TGI,[9],> 100 µM
same,TGI,[6],> 100 µM
same,TGI,[10],73.4 µM
same,TGI,[7],> 100 µM
COc1ccc(/C=C2\CCC(CNc3ccc(Br)cc3)C2=O)cc1 (centres undefined),TGI,[1],> 100 µM
same,TGI,[2],> 100 µM
same,TGI,[5],> 100 µM
same,TGI,[8],> 100 µM
same,TGI,[9],> 100 µM
same,TGI,[6],> 100 µM
same,TGI,[10],> 100 µM
same,TGI,[7],> 100 µM
COC(=O)/C=C/c1ccc2c(c1)CC1(Cc3ccccc3C1)C2,TGI,[1],> 100 µM
same,TGI,[3],> 100 µM
same,TGI,[4],1.34 µM
same,TGI,[9],> 100 µM
same,TGI,[6],> 100 µM
same,TGI,[10],> 100 µM
same,TGI,[7],> 100 µM
Nc1ncc(/C=N/O)c(NCC2(CO)CC(CCc3ccccc3)C2)n1 (centres undefined),TGI,[1],29.9 µM
same,TGI,[2],22.1 µM
same,TGI,[3],39.2 µM
same,TGI,[4],18 µM
same,TGI,[9],30.4 µM
same,TGI,[6],31.6 µM
same,TGI,[10],26.8 µM
same,TGI,[7],25.3 µM
CC(=O)CC1(C)OC(N)=C(C#N)C1(C#N)C#N (centres undefined),TGI,[1],> 100 µM
same,TGI,[3],> 100 µM
same,TGI,[4],> 100 µM
same,TGI,[5],> 100 µM
same,TGI,[9],> 100 µM
same,TGI,[6],> 100 µM
same,TGI,[10],> 100 µM
same,TGI,[7],> 100 µM
CCN(CC)CCCCC1CCN(CC(=O)N2c3ccccc3NC(=O)CC2C)CC1 (centres undefined),TGI,[1],> 100 µM
same,TGI,[2],> 100 µM
same,TGI,[3],> 100 µM
same,TGI,[4],> 100 µM
same,TGI,[5],> 100 µM
same,TGI,[9],> 100 µM
same,TGI,[6],> 100 µM
same,TGI,[7],> 100 µM
COC(=O)c1c(OC)cc2cc3c(c(O)c2c1C)C(=O)C1(O)C(=O)C=C(OC)C(OC(=O)CC(C)N)=C1C3=O (centres undefined),TGI,[1],> 100 µM
same,TGI,[2],> 100 µM
same,TGI,[3],> 100 µM
same,TGI,[4],> 100 µM
same,TGI,[5],> 100 µM
same,TGI,[8],> 100 µM
same,TGI,[9],87.9 µM
same,TGI,[6],42.7 µM
same,TGI,[10],> 100 µM
Cc1cc([N+](=O)[O-])c(S(=O)(=O)c2ccccc2)c([N+](=O)[O-])c1,TGI,[1],35.3 µM
same,TGI,[2],28.2 µM
same,TGI,[3],47.6 µM
same,TGI,[4],22.5 µM
same,TGI,[5],40.9 µM
same,TGI,[9],35.7 µM
same,TGI,[6],32.1 µM
same,TGI,[7],27.9 µM
CC1(C)[C@@H]2CC[C@@]1(C)[C@H](O)[C@@H]2SCc1ccccc1,TGI,[1],29.7 µM
same,TGI,[2],39.9 µM
same,TGI,[3],33.7 µM
same,TGI,[4],44.4 µM
same,TGI,[5],38.4 µM
same,TGI,[9],36.6 µM
same,TGI,[6],36.4 µM
same,TGI,[10],50.4 µM
CC(c1ccccc1)N1CC(C)(c2ccccc2)N(O)C(c2ccccc2)C1C (centres undefined),TGI,[2],27 µM
same,TGI,[3],28 µM
same,TGI,[4],11.6 µM
same,TGI,[5],21.9 µM
same,TGI,[9],36.9 µM
same,TGI,[6],> 100 µM
same,TGI,[7],66.2 µM
COc1cc2cc(C(=O)N3CC(CCl)c4c3cc([N+](C)(C)Cc3ccc([N+](=O)[O-])n3C)c3ccccc43)[nH]c2c(OC)c1OC (centres undefined),TGI,[2],5.41 µM
same,TGI,[3],1.5 µM
same,TGI,[4],6.92 µM
same,TGI,[5],9.11 µM
same,TGI,[8],11.5 µM
same,TGI,[9],2.48 µM
same,TGI,[6],> 23.8 µM
same,TGI,[7],25.6 µM

# From PubChem BioAssay (NCI)
